Results: patent US20210255193A1, “LYSINE REACTIVE PROBES AND USES THEREOF” (The Scripps Research Institute, priority 2017, published 2021)

Experiments:
Test in all cases: competitive isoTOP-ABPP
Type in all cases: binding
[1] = target: T1, UCHL5 Ubiquitin carboxyl-terminal hydrolase isozyme L5 (Homo sapiens, UniProt Q9Y5K5); details: for R value (DMSO/fragment) for probe 1 labeling: Q9Y5K5_K323
T1 construct: endogenous in cells; host or cells: MDA-MB-231 (soluble fraction of lysate)
T1 sequence (Q9Y5K5 1-329): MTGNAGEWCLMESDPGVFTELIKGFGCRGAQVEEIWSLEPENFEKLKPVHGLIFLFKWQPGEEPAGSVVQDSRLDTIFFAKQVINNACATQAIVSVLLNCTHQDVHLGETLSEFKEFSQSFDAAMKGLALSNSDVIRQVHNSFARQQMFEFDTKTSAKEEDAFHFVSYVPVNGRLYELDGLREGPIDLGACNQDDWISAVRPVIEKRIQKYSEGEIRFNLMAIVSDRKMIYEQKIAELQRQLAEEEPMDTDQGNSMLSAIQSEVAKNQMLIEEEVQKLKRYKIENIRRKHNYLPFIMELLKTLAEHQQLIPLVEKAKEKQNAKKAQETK
Description: (§1) In vitro covalent fragment treatment for isoTOP-ABPP. All compounds were made up as solutions in DMSO (100×) and were used at a final concentration of 50 μM for activated esters and 100 μM for guanidinylating agents. For each profiling sample, 0.5 ml of lysate was treated with 5 μl of the 100× compound stock solution or 5 μl of DMSO. Samples were treated with activated esters for
(§2) STP-alkyne labeling and click chemistry. For concentration-dependent reactivity measurements by isoTOP-ABPP, 0.5 ml proteome aliquots were treated at ambient temperature with 1 mM STP-alkyne 1 (5 μl of 100 mM stock in DMSO) and 0.1 mM STP alkyne 1 (5 μl of 10 mM stock in DMSO), respectively. For competitive isoTOP-ABPP, after in vitro fragment treatment (detailed above), the samples were labeled for 1 h at ambient temperature with 0.1 mM STP-alkyne 1 (5 μl of 10 mM stock in DMSO). Samples were conjugated by copper-mediated azide-alkyne cycloaddition (CuAAC) to either the light (1 mM STP-alkyne or fragment treated) or heavy (0.1 mM STP-alkyne or DMSO treated) TEV tags (10 μl of 5 mM stocks in DMSO, final concentration=100 μM) using tris(2-carboxyethyl)phosphine hydrochloride
(§3) R value calculation and processing. The ratios of light and heavy MS1 peaks for each unique peptide were quantified with a CIMAGE software using default parameters (3 MS1 acquisitions per peak and signal to noise threshold set to 2.5). For reactivity measurements by isoTOP-ABPP, the R value was calculated from the ratio of MS1 peak areas, comparing the 1 mM STP alkyne sample (light TEV tag) with the 0.1 mM STP alkyne sample (heavy TEV tag). For competitive isoTOP-ABPP, the R value was calculated from the ratio of MS1 peak areas, comparing the DMSO treated sample (heavy TEV tag) with the compound treated sample (light TEV tag). […] Ratios for unique peptide entries are calculated for each experiment; overlapping peptides with the same modified lysine (for example, different charge states, MudPIT chromatographic steps or tryptic termini) are grouped together and the median ratio is reported as the final ratio (R). The peptide ratios reported by CIMAGE were further filtered to ensure the removal or correction of low-quality ratios in each individual data set. The quality filters applied were the following: removal of half tryptic peptides; for ratios with high standard deviations from the median (90% of the median or above) the lowest ratio was taken instead of the median; removal of peptides with R=20 and only a single MS2 event triggered during the elution of the parent ion; manual annotation of all the peptides with ratios of 20, removing any peptides with low quality elution profiles that remained after the previous curation steps (only done for competitive isoTOP-ABPP).
(§4) Cross-data processing for fragment screening. For compound treated samples, biological replicates of the same condition were averaged, if the standard deviation was below 60% of the mean; otherwise, for lysines with at least one R value <4 for a particular compound, the lowest value of the ratio set was taken. For lysines, where all R values for a particular compound were ≥4, the average was reported. For peptides containing several possible modified lysines, the lysine with the highest number of quantification events was used for analysis and the remaining, redundant peptides were reported as alternative modification sites. Peptides included in the aggregate dataset (those used for further bioinformatics and statistical analyses) were required to have been quantified in 2 experiments for competitive isoTOP-ABPP. Lysines were categorized as liganded, if they had at least one ratio R≥4 (hit fragments). For liganded lysines with R=20 for all liganding events, lysines were required to have been quantified with R=20 in two separate experiments and were further required to have been quantified with R<20 in one additional experiment.

LMNA Prelamin-A/C = target: T2, LMNA Prelamin-A/C (Homo sapiens, UniProt P02545); details: for R value (DMSO/fragment) for probe 1 labeling: P02545_K135
T2 construct: isoTOP-ABPP experiments performed in cell lysates (in vitro); endogenous in cells; host or cells: MDA-MB-231 soluble lysate
T2 sequence (P02545 1-664): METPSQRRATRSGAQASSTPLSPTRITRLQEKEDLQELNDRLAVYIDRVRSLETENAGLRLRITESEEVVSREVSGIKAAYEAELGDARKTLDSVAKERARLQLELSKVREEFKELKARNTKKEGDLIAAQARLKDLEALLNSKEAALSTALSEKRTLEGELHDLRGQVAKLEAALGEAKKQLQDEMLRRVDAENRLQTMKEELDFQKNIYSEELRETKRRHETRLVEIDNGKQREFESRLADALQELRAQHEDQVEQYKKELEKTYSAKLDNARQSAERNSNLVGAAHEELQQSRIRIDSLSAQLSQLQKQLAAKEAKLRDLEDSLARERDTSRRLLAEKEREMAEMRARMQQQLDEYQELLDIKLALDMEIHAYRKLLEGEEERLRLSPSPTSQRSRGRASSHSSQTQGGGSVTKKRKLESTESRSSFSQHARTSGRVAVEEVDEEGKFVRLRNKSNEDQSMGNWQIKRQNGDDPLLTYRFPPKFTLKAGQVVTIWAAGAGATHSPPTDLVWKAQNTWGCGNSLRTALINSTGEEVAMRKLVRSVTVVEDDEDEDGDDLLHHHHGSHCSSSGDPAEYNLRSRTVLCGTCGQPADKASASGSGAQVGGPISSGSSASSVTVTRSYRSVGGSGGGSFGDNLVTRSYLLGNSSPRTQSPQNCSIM
Description: as §1, §2, §3, §4

[2] = target: T3, NAA25 N-alpha-acetyltransferase 25, NatB auxiliary subunit (Homo sapiens, UniProt Q14CX7); details: for R value (DMSO/fragment) for probe 1 labeling: Q14CX7_K575
T3 construct: isoTOP-ABPP experiments performed in cell lysates (in vitro); endogenous in cells; host or cells: soluble proteome of human cancer cell lines (MDA-MB-231; Ramos and Jurkat also prepared)
T3 sequence (Q14CX7 whole entry, the tested form may be a part): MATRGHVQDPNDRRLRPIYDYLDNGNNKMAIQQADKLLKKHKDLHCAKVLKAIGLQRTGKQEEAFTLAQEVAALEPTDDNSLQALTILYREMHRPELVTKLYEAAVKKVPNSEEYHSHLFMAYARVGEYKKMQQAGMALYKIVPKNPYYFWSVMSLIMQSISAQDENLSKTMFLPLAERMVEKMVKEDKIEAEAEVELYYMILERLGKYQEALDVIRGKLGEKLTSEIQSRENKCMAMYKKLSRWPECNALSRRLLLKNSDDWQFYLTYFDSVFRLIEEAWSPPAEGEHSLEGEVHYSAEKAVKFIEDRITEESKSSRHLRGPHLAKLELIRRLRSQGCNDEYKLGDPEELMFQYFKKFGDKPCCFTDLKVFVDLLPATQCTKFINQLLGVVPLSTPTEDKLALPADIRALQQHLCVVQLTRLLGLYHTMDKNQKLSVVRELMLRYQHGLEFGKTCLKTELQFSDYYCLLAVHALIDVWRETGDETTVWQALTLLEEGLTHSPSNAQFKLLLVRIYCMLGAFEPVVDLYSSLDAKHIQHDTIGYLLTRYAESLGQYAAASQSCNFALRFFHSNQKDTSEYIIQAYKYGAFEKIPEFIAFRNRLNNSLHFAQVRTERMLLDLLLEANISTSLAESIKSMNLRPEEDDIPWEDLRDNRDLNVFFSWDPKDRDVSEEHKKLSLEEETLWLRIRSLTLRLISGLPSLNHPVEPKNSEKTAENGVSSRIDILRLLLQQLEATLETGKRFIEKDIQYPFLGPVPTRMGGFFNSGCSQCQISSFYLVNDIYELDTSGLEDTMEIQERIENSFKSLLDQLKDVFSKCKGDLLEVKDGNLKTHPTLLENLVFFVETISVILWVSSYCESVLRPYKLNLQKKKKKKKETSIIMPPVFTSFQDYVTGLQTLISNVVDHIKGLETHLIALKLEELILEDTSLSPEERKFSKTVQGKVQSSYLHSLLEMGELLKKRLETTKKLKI
Description: as §1, §2, §3, §4

[3] = target: T4, ERAP1 Endoplasmic reticulum aminopeptidase 1 (Homo sapiens, UniProt Q9NZ08); details: for R value (DMSO/fragment) for probe 1 labeling: Q9NZ08_K685
T4 construct: endogenous in cells; host or cells: MDA-MB-231 lysate
T4 sequence (Q9NZ08 whole entry, the tested form may be a part): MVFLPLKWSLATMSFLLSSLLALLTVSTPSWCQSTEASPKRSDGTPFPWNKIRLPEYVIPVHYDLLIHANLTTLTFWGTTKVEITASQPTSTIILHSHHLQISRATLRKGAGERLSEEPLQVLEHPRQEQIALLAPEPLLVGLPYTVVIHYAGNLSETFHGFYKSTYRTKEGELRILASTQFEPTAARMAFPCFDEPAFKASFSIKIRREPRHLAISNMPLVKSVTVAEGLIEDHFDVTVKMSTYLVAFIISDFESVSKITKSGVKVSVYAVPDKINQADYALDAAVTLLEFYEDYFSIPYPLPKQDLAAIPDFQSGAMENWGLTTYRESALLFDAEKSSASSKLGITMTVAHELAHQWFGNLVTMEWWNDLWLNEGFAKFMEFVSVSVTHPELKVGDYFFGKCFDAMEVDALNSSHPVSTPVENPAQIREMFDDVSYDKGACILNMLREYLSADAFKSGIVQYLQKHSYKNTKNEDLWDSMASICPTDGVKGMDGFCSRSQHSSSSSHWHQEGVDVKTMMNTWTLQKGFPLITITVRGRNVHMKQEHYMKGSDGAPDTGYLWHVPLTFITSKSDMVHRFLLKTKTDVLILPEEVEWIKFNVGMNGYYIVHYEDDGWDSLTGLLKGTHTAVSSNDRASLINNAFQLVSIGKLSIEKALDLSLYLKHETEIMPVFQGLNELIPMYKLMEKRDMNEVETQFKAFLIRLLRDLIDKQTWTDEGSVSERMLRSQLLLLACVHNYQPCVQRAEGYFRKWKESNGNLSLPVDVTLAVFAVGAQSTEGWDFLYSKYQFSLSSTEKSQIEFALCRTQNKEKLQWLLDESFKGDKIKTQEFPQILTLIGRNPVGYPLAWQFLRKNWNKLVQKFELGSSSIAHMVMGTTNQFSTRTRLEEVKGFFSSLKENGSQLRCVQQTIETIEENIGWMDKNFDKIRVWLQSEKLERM
Description: as §1, §2, §3, §4

O=C(Oc1c(F)c(F)cc(F)c1F)c1cc(C(F)(F)F)cc(C(F)(F)F)c1 [fragment 48, 2,3,5,6-Tetrafluorophenyl 3,5-bis(trifluoromethyl)benzoate]
isoTOP-ABPP ratio, lysine Q9Y5K5_K323 ([1]; 50 uM_231_sol_in vitro): 0.9 | isoTOP-ABPP ratio, lysine P02545_K135 (LMNA Prelamin-A/C; 50 uM_231_sol_in vitro): 1.0 | isoTOP-ABPP ratio, lysine Q14CX7_K575 ([2]; 50 uM_231_sol_in vitro): 1.1 | isoTOP-ABPP ratio, lysine Q9NZ08_K685 ([3]; 50 uM_231_sol_in vitro): 1.5

N#Cc1ccc(C(=O)Oc2ccc([N+](=O)[O-])cc2[N+](=O)[O-])cc1 [fragment 44, 2,4-Dinitrophenyl 4-cyanobenzoate]
isoTOP-ABPP ratio, lysine Q9Y5K5_K323 ([1]; 50 uM_231_sol_in vitro): 0.9 | isoTOP-ABPP ratio, lysine P02545_K135 (LMNA Prelamin-A/C; 50 uM_231_sol_in vitro): 0.9 | isoTOP-ABPP ratio, lysine Q14CX7_K575 ([2]; 50 uM_231_sol_in vitro): 0.8 | isoTOP-ABPP ratio, lysine Q9NZ08_K685 ([3]; 50 uM_231_sol_in vitro): 1.6

O=C(Oc1ccc([N+](=O)[O-])cc1[N+](=O)[O-])c1ccc(-c2ccccc2)cc1 [fragment 37, 2,4-Dinitrophenyl [1,1′-biphenyl]-4-carboxylate]
isoTOP-ABPP ratio (R) at liganded lysine Q9Y5K5_K323 ([1]; 50 uM, in vitro, sol, 231): 0.9 | isoTOP-ABPP ratio (R) at liganded lysine P02545_K135 (LMNA Prelamin-A/C; 50 uM, in vitro, sol, 231): 0.9 | isoTOP-ABPP ratio (R) at liganded lysine Q14CX7_K575 ([2]; 50 uM, in vitro, sol, 231): 0.9 | isoTOP-ABPP ratio (R) at liganded lysine Q9NZ08_K685 ([3]; 50 uM, in vitro, sol, 231): 1.0

O=C(CCc1ccc2c(c1)OCO2)Oc1ccc([N+](=O)[O-])cc1[N+](=O)[O-] [fragment 45, 2,4-Dinitrophenyl 3-(benzo[d][1,3]dioxol-5-yl)propanoate]
isoTOP-ABPP ratio, lysine Q9Y5K5_K323 ([1]; 50 uM_231_sol_in vitro): 1.5 | isoTOP-ABPP ratio, lysine P02545_K135 (LMNA Prelamin-A/C; 50 uM_231_sol_in vitro): 0.9 | isoTOP-ABPP ratio, lysine Q14CX7_K575 ([2]; 50 uM_231_sol_in vitro): 1.2 | isoTOP-ABPP ratio, lysine Q9NZ08_K685 ([3]; 50 uM_231_sol_in vitro): 1.3

COC(=O)NC(=NC(=O)OCC1c2ccccc2-c2ccccc21)n1cccn1 [fragment 49, N-Methoxycarbonyl-N′-9-fluorenylmethoxycarbonyl-pyrazole-1-carboxamidine]
isoTOP-ABPP ratio, lysine Q9Y5K5_K323 ([1]; 100 uM_231_sol_in vitro): 9.0 | isoTOP-ABPP ratio, lysine P02545_K135 (LMNA Prelamin-A/C; 100 uM_231_sol_in vitro): 1.1 | isoTOP-ABPP ratio, lysine Q14CX7_K575 ([2]; 100 uM_231_sol_in vitro): 1.1 | isoTOP-ABPP ratio, lysine Q9NZ08_K685 ([3]; 100 uM_231_sol_in vitro): 1.6

O=C(Oc1c(F)c(F)c(F)c(F)c1F)C(c1ccccc1)c1ccccc1 [fragment 20, Pentafluorophenyl 2,2-diphenylacetate]
R value (DMSO/fragment) for probe 1 labeling ([1]; 50 uM, 231 sol, in vitro): 0.9 | R value (DMSO/fragment) for probe 1 labeling (LMNA Prelamin-A/C; 50 uM, 231 sol, in vitro): 1.0 | R value (DMSO/fragment) for probe 1 labeling ([2]; 50 uM, 231 sol, in vitro): 1.1 | R value (DMSO/fragment) for probe 1 labeling ([3]; 50 uM, 231 sol, in vitro): 1.5

O=C(Oc1c(F)c(F)c(F)c(F)c1F)c1cc(C(F)(F)F)cc(C(F)(F)F)c1 [fragment 21, Pentafluorophenyl 3,5-bis(trifluoromethyl)benzoate]
R value (DMSO/fragment) for probe 1 labeling ([1]; 50 uM, 231 sol, in vitro): 1.0 | R value (DMSO/fragment) for probe 1 labeling (LMNA Prelamin-A/C; 50 uM, 231 sol, in vitro): 1.0 | R value (DMSO/fragment) for probe 1 labeling ([2]; 50 uM, 231 sol, in vitro): 0.9 | R value (DMSO/fragment) for probe 1 labeling ([3]; 50 uM, 231 sol, in vitro): 1.4

Cn1cc(CC(=O)Oc2ccc([N+](=O)[O-])cc2[N+](=O)[O-])c2ccccc21 [fragment 32, 2,4-Dinitrophenyl 2-(1-methyl-1H-indol-3-yl)acetate]
isoTOP-ABPP reactivity ratio at lysine Q9Y5K5_K323 ([1]; 50 uM, 231 sol, in vitro): 1.0 | isoTOP-ABPP reactivity ratio at lysine P02545_K135 (LMNA Prelamin-A/C; 50 uM, 231 sol, in vitro): 20.0 | isoTOP-ABPP reactivity ratio at lysine Q14CX7_K575 ([2]; 50 uM, 231 sol, in vitro): 2.4 | isoTOP-ABPP reactivity ratio at lysine Q9NZ08_K685 ([3]; 50 uM, 231 sol, in vitro): 2.8
